Measurements published in paper PMC6934184, “Selective DNA-PKcs inhibition extends the therapeutic index of localized radiotherapy and chemotherapy” (The Journal of Clinical Investigation, 2019).

Target: T1, SPHK2 (Homo sapiens, UniProt Q9NRA0)
T1 construct: purchased Thermo Fisher Scientific (Life Technologies) SelectScreen
Assay: SelectScreen Adapta
Format: biochemical
Conditions: ATP 10 µM
Description: The in vitro kinase selectivity of NU5455 was determined using the SelectScreen Broad Assay Panel (Thermo Fisher Scientific) involving activity and binding assays (Supplemental Table 1). […] Class IA PI3Ks were measured using the p85α subunit.
Kinase [ATP] % Assay Kinase [ATP] % Assay Kinase [ATP] % Assay Kinase [ATP] % Assay […]
MAPK14 (p38 alpha) Km app 9.7 Z SPHK2 10 3.1 A ICK n/a 0.0 L SGKL (SGK3) Km app -4.6 Z […]
SGK (SGK1) Km app 8.5 Z MAP4K2 (GCK) Km app 2.7 Z TLK2 n/a -0.3 L STK38 (NDR) n/a -5.9 L
MERTK (cMER) Km app 8.3 Z CDK2/cyclin A Km app 2.7 Z TGFBR1 (ALK5) n/a -0.4 L MATK (HYL) Km app -6.3 Z
FYN Km app 8.3 Z EPHA1 Km app 2.7 Z CLK3 Km app -0.5 Z ABL1 E255K Km app -6.6 Z
TEC n/a 8.1 L CDK2/cyclin E1 n/a 2.7 L MAP3K14 (NIK) n/a -0.5 L STK17A (DRAK1) n/a -6.6 L
KIT V654A n/a 8.1 L TESK2 n/a 2.7 L AKT3 (PKB gamma) Km app -0.5 Z JAK2 JH1 JH2 Km app -6.7 Z
ROS1 Km app 8.0 Z SPHK1 Km app 2.7 A MAP3K9 (MLK1) Km app -0.5 Z PRKACB (PRKAC beta) n/a -6.8 L
FGFR3 K650E Km app 7.9 Z AMPK A2/B1/G1 Km app 2.6 Z IKBKB (IKK beta) Km app -0.6 Z PDGFRA (PDGFR alpha) Km app -6.8 Z
RAF1 (cRAF) Y340D Y341D 100 7.9 Z DYRK3 Km app 2.6 Z CAMK2A (CaMKII alpha) Km app -0.6 Z NEK9 Km app -7.2 Z
PI4KA (PI4K alpha) 10 7.8 A CSNK1D (CK1 delta) Km app 2.6 Z PRKCB1 (PKC beta I) Km app -0.7 Z PDK1 Km app -7.3 Z
HIPK2 Km app 7.8 Z ACVR2A n/a 2.5 L TTK n/a -0.7 L RPS6KB1 (p70S6K) Km app -7.8 Z […]

T1 sequence (Q9NRA0 whole entry): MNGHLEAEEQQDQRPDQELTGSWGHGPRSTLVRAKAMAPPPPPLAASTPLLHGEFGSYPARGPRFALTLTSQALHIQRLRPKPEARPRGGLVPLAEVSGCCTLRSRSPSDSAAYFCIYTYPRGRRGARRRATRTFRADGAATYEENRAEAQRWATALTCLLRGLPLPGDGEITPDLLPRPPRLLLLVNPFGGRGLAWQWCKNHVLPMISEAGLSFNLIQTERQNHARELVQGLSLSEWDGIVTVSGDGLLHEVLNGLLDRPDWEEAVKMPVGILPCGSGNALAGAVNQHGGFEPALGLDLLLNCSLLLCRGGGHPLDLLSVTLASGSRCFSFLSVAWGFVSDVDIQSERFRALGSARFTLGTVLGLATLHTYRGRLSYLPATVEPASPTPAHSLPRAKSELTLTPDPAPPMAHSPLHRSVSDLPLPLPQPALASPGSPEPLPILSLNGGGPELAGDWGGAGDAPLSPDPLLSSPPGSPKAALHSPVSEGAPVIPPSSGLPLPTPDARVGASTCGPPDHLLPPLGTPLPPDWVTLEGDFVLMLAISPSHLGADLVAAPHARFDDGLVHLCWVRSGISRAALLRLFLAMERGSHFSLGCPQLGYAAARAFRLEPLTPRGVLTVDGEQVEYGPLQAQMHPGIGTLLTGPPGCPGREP

CN(C(=O)CN1CCOCC1)c1ccc2sc3c(-c4cccc5c(=O)cc(N6CC7CCC(C6)O7)oc45)cccc3c2c1 [NU5455]
inhibition at 1 µM: 3.1%
